Data on seven compounds can be found in patent publication US20260098017A1, “NOVEL AROMATIC RING DERIVATIVE CONTAINING AMIDE SUBSTITUTION AND USE THEREOF” (TIANJIN PHARMACEUTICAL BIOTECHNOLOGY CO., LTD., priority 2022, published 2026).

A value given as a limit tells only on which side of the number the result lay.

For one series, the target named is T1, TYK2 JH1 kinase (Homo sapiens, UniProt P29597).
T1 sequence (P29597 897-1176 limits assumed): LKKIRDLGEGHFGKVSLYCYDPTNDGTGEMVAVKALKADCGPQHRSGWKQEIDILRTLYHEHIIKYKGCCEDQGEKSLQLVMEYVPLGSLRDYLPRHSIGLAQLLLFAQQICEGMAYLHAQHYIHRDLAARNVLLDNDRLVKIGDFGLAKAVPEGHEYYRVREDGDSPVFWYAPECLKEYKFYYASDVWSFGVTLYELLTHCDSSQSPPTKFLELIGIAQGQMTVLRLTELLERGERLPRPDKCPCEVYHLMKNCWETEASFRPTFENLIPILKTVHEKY
In words: TYK2 JH1 enzyme assay in vitro (TR-FRET). The series is classed as biochemical. A general note: In TR-FRET formats the signal depends on donor and acceptor labels being close together.

For the next series, the target named is TYK2 JH2 pseudokinase (Homo sapiens, UniProt P29597). In words: TYK2 JH2 enzyme binding assay in vitro (TR-FRET). The method, then:
Instrumentation: Envision microplate reader (PerkinElmer), ECHO550 (LABCYTE).
Method: the inhibitory effects of compounds on TYK2 JH2 pseudokinase was tested using time-resolved fluorescence resonance energy transfer (TR-FRET) method.
Procedure: compounds were prepared into 10 mM stock solutions using DMSO, which were further diluted into compound dilutions (200×) with different concentration gradients in DMSO, and the compound dilutions (200×) were transferred to a 384-well assay plate using an Echo instrument. […] TYK2 JH2 pseudokinase, Tb antibody, and Tracer working solutions were prepared using the dilution buffer, respectively. 5 uL of TYK2 JH2 pseudokinase working solution (final concentration 0.5 nM) was added to a 384-well assay plate, and centrifuged at 1000 rpm for 30 s. 5 uL of Tb antibody (final concentration 1×) was added to the 384-well assay plate, and centrifuged at 1000 rpm for 30 s. 5 uL of Tracer (final concentration 0.5 nM) was added to the 384-well assay plate, and centrifuged at 1000 rpm for 30 s. Incubation was performed at room temperature for 60 min, and then at 4° C. overnight.
Data Analysis: XLfit, a software developed by IDBS and integrated into the Microsoft Excel environment, was used to process and analyze the test data.

Another series concerns the target JAK1 JH1 kinase (Homo sapiens, UniProt P23458). The experiment in a line: JAK1 JH1 enzyme assay in vitro (TR-FRET). Particulars: read-out: JAK 1 JH1 IC50. In kind it is biochemical.
The target in another series is T2, hERG channel (Homo sapiens, UniProt Q12809).
T2 construct: expressed in transfected cells; host or cells: HEK-293
T2 sequence (Q12809 whole entry): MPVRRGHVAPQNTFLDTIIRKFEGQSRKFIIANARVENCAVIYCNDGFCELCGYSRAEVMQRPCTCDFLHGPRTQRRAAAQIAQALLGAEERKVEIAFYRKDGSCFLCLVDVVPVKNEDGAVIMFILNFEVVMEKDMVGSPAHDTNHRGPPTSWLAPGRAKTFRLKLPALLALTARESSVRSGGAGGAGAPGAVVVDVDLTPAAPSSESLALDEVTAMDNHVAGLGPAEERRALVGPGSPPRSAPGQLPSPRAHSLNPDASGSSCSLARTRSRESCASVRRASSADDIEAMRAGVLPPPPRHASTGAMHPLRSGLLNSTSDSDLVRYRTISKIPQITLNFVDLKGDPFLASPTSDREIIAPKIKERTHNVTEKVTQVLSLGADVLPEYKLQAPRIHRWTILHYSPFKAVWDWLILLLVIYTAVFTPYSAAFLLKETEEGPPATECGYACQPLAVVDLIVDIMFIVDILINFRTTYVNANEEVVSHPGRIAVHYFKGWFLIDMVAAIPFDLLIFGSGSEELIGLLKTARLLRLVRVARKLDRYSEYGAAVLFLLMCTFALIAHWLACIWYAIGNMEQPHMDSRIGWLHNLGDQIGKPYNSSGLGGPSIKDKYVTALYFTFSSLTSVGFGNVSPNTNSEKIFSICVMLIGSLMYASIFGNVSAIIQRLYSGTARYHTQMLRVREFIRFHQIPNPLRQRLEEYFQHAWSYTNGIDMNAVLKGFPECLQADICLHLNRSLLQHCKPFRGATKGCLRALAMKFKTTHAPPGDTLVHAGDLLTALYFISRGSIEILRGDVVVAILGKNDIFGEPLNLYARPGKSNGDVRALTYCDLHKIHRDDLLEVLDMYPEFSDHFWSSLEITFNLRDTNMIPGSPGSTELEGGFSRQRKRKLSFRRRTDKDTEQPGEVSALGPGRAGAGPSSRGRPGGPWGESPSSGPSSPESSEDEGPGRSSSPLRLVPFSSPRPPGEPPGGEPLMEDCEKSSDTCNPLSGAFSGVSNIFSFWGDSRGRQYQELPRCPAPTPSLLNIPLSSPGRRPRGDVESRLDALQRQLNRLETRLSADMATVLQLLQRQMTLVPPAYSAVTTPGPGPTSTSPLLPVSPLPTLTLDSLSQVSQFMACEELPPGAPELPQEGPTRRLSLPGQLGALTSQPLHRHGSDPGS
In words: hERG potassium channel inhibition assay (manual patch clamp). The series is classed as cell-based. Particulars: HEK-293 cell line stably expressing hERG channel, at the tested concentrations. As for the experimental part: Instrumentation: HEKA EPC 10 patch clamp amplifier.
Method: in this experiment, the blocking effect of the compounds on the current of the HEK-293 cell line stably expressing hERG channel was measured using the manual patch clamp technique, and the risk of the compounds on the inhibition of cardiac hERG potassium channel was assessed by fitting the concentration effect relationship.
Procedure: in the patch clamp operation, firstly, a capillary glass tube was pulled into a recording electrode using a microelectrode puller, then an electrode filled with intracellular solution was mounted into a microelectrode holder. A microelectrode manipulator was operated under an inverted microscope to immerse the electrode into an extracellular solution and the electrode resistance (Rpip) was recorded. Then, the electrode was slowly brought into contact with the cell surface, and a negative pressure was applied for suction to form a GΩ seal. At this point, a fast capacitance compensation was performed, and a negative pressure was continuously applied to suck and break the cell membrane to form a whole cell recording mode. Finally, a slow capacitance compensation was performed and experimental parameters including series resistance (Rs) and the like were recorded. No leakage compensation was performed. When the hERG current recorded by the whole cell was stable, the administration of drugs commenced, and each drug concentration acted for about 5 min (or until the current stabilization) before detecting the next concentration. A cover glass covered with cells was placed in a recording bath under an inverted microscope, the blank control extracellular solution and the working solution of the compounds to be tested sequentially flowed through the recording bath from low concentration to high concentration by using gravity perfusion to act on the cells, and solution exchange was performed using a peristaltic pump during recording. The current measured by each cell in the extracellular solution without the compound served as its own control group. Each concentration was independently assessed twice. All electrophysiological tests were performed at room temperature.
Data Analysis: firstly, the tail current (Peak tail currentcompound) after the action of each drug concentration and the blank control tail current (Peak tail currentcontrol) were normalized, then the inhibition rate
corresponding to each drug concentration was calculated, and the mean (Mean), standard deviation (SD) and standard error (SE) of the inhibition rate corresponding to each concentration were calculated, with data expressed as Mean±SE. The calculation of IC50 value and the fitting of dose-response curve for the compound were performed using GraphPad Prism software.

The target of series [1] is Ba/F3 cell line expressing TYK2 (Homo sapiens, UniProt P29597, cells depend on it, form not given). The experiment in a line: In vitro cellular inhibition assay (Ba/F3 cell proliferation, CellTiter-Glo). In kind it is cell-based. The note with it: read-out: IC50 (the source's name). The method, then:
The inhibitory effect of the compounds of formula (I) according to the present invention on the TYK2 signaling pathway in cells was assessed using the following method:
Instrumentation: SpectraMax Paradigm reader.
Method: in this experiment, a Ba/F3 cell line expressing TYK2 was employed to assess the effect of the compounds on cell proliferation inhibition by measuring their effects on cell activity in vitro.
Procedure: a CellTiter-Glo buffer was thawed and placed aside till room temperature. A CellTiter-Glo substrate was placed aside till room temperature and dissolved with the buffer to prepare a CellTiter-Glo working solution. To a 96-well flat bottom transparent drug plate, 98 μL of cell culture medium and 2 μL of gradient diluted compound solution were added. The drug plate was placed aside for 10 min, and then 50 μL of the CellTiter-Glo working solution was added. The drug plate was subsequently shaken on an orbital shaker for 2 min and placed aside at room temperature for an additional 10 min. Finally, the luminescence signal was measured on the SpectraMax Paradigm reader.
Data Analysis: the cell proliferation inhibition rate data were processed using the following formula:
Inhibition Rate (Inh %)=100−(RLUDrug−RLUMin)/(RLUMax−RLUMin)×100%.
The inhibition rates of compounds with different concentrations were calculated in EXCEL, and then GraphPad Prism software was employed to plot inhibition rate curve and calculate relevant parameters, including maximum and minimum cell inhibition rates, IC50 values.
In general terms: Cellular ATP, detected with luciferase, serves as a proxy for viable cell number.

In the next series the target is JAK3 JH1 kinase (Homo sapiens, UniProt P52333). The experiment in a line: JAK3 JH1 enzyme assay in vitro (TR-FRET). In kind it is biochemical. Particulars: TR-FRET; read-out: JAK 3 JH1 IC50.
JAK3 JH1 kinase, sequence (P52333 822-1111 limits assumed): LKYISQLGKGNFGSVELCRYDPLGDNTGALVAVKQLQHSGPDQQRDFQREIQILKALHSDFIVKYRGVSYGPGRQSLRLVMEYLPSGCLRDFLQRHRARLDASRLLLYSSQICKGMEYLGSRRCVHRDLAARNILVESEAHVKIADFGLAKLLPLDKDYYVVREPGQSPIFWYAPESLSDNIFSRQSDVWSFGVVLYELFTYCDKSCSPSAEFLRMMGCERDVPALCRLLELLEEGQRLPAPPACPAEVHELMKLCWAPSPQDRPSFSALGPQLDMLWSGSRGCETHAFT
The target of the next series is JAK2 JH1 kinase (Homo sapiens, UniProt O60674). The experiment in a line: JAK2 JH1 enzyme assay in vitro (TR-FRET). The series is classed as biochemical. The note with it: read-out: JAK 2 JH1 IC50.
JAK2 JH1 kinase, sequence (O60674 849-1124 limits assumed): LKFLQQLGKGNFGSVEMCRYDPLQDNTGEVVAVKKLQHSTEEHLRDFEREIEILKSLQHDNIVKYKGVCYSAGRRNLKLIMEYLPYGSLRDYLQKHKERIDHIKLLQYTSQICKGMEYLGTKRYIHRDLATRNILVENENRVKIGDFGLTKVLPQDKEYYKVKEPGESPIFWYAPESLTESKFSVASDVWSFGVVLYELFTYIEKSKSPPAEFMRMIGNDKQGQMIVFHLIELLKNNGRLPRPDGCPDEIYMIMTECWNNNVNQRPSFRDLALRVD
Another series concerns the target JAK1 JH2 pseudokinase (Homo sapiens, UniProt P23458). In words: JAK1 JH2 enzyme binding assay in vitro (TR-FRET). The note with it: read-out: JAK 1 JH2 IC50. The method, then: Instrumentation: Envision microplate reader (PerkinElmer), Echo (LABCYTE)
Method: in this experiment, the inhibitory effects of compounds on JAK1 JH2 pseudokinase was tested using time-resolved fluorescence resonance energy transfer (TR-FRET) method.
Procedure: compounds were prepared into 10 mM stock solutions using DMSO, which were further diluted into compound dilutions with different concentration gradients in DMSO, and the compound dilutions with 200× final concentration were transferred to a 384-well assay plate using an Echo instrument. The preparation of the following 1× assay working solution: HEPES pH7.5 at a final concentration of 20 mM, MgCl2 at a final concentration of 10 mM, Brij-35 at a final concentration of 0.015%, DTT at a final concentration of 2 mM, BSA at a final concentration of 50 ug/mL. JAK1 JH2 pseudokinase with 3× final concentration, Tb antibody and Tracer were prepared using their respective 1× working solution. 5 uL of JAK1 JH2 pseudokinase was added to a 384-well assay plate, and centrifuged at 1000 rpm for 30 s. 5 uL of Tb antibody was added to the 384-well assay plate, and centrifuged at 1000 rpm for 30 s. 5 uL of Tracer was added to the 384-well assay plate, and centrifuged at 1000 rpm for 30 s. Incubation was performed at room temperature for 60 min, and then at 4° C. overnight. Finally, the 495 nm/520 nm fluorescence signal ratio was measured using the Envision microplate reader (PerkinElmer).
Data Analysis: XLfit, a software developed by IDBS and integrated into the Microsoft Excel environment, was used to process and analyze the test data. […] Thereafter, the concentration and corresponding inhibition rate data were imported into the XLfit software, and the Dose Response One Site 205 model within the software was employed to fit the inhibition rate-concentration curve by four-parameter method, and the IC50 value of the compound was calculated.

Series [2] concerns imiquimod-induced mouse psoriasis-like model. The experiment in a line: Imiquimod-induced mouse psoriasis-like model (PASI score). Particulars: oral gavage, 10 mg/kg, 25 mg/kg, 50 mg/kg, bid, compared with the model group. The series is classed as in vivo.

JAK1 JH1 kinase, sequence (P23458 875-1153 limits assumed): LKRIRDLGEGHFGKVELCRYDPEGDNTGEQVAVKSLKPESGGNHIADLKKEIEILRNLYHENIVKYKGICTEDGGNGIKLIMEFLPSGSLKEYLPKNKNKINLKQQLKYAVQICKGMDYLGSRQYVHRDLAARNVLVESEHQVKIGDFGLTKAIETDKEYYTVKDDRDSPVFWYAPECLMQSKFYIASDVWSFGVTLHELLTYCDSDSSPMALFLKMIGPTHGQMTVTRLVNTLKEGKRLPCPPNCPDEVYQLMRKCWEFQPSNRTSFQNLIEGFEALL
TYK2 JH2 pseudokinase, sequence (P29597 589-875 limits assumed): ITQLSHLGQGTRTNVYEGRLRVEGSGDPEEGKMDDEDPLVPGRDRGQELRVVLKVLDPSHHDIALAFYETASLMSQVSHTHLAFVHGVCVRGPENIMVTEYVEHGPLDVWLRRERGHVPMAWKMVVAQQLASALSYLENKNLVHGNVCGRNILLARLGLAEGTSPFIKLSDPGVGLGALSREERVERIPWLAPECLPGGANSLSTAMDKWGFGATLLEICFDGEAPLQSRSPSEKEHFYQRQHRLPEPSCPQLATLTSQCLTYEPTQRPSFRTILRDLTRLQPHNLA
JAK1 JH2 pseudokinase, sequence (P23458 583-855 limits assumed): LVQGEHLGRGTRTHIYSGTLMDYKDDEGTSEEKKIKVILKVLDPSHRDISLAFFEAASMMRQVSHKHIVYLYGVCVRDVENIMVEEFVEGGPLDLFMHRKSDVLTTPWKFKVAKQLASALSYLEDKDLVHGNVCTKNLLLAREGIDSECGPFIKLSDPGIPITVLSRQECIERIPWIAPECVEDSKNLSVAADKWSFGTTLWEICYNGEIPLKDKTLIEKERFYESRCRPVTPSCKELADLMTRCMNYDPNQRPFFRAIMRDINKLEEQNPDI

In general, IC50 refers to the midpoint of a concentration-inhibition curve. On to `[2H]C([2H])([2H])NC(=O)c1nnc(NC(=O)C2CC2)cc1Nc1cccc(C(=O)Nc2ccc(C)cc2)c1OC` [Example 2], for which the IC50 was greater than 10000 nM at TYK2 JH1 kinase; 0.311 nM at TYK2 JH2 pseudokinase; greater than 10000 nM at JAK1 JH1 kinase; greater than 10000 nM at JAK3 JH1 kinase; greater than 10000 nM on JAK2 JH1 kinase; 6.56 nM on JAK1 JH2 pseudokinase. Further, at hERG channel, the hERG inhibition result is reported as “no significant inhibition”. In series [1], the GI50 fell in the range of 1 to 5 nM. Also, the “Improvement of psoriasis symptoms by oral administration” value (from here on “Improvement of psoriasis symptoms”) in series [2] is given as “effectively improve psoriasis symptoms”.
`[2H]C([2H])([2H])NC(=O)c1nnc(NC(=O)C2CC2)cc1Nc1cccc(C(=O)Nc2ccc(C)c(C)c2)c1OC` [Example 4]: the IC50 is greater than 10000 nM at TYK2 JH1 kinase; 0.293 nM on TYK2 JH2 pseudokinase; greater than 10000 nM at JAK1 JH1 kinase; greater than 10000 nM on JAK3 JH1 kinase; greater than 10000 nM on JAK2 JH1 kinase; 5.33 nM at JAK1 JH2 pseudokinase. Moreover, at hERG channel, the hERG inhibition entry is given as “no significant inhibition”. Further, the GI50 in series [1] is 1 to 5 nM. The “Improvement of psoriasis symptoms” value in series [2] was “effectively improve psoriasis symptoms”.
As for `[2H]C([2H])([2H])NC(=O)c1nnc(NC(=O)C2CC2)cc1Nc1cccc(C(=O)Nc2ccc(F)cc2)c1OC` [Example 5], the 50% inhibitory concentration (IC50) against TYK2 JH1 kinase was greater than 10000 nM; at TYK2 JH2 pseudokinase, 0.281 nM; at JAK1 JH1 kinase it was greater than 10000 nM; at JAK3 JH1 kinase, greater than 10000 nM; at JAK2 JH1 kinase it was greater than 10000 nM; on JAK1 JH2 pseudokinase, 6.93 nM. For the same compound, on hERG channel, the hERG inhibition entry is recorded as “no significant inhibition”. Also, the GI50 in series [1] lay within 1 to 5 nM. Further, the “Improvement of psoriasis symptoms” value in series [2] is recorded as “effectively improve psoriasis symptoms”.
With `[2H]C([2H])([2H])NC(=O)c1nnc(NC(=O)C2CC2)cc1Nc1cccc(C(=O)Nc2cnn(C)c2)c1OC` [Example 34], the IC50 was greater than 10000 nM on TYK2 JH1 kinase; 0.341 nM on TYK2 JH2 pseudokinase; greater than 10000 nM on JAK1 JH1 kinase; greater than 10000 nM on JAK3 JH1 kinase; greater than 10000 nM on JAK2 JH1 kinase; 4.16 nM at JAK1 JH2 pseudokinase. Further, on hERG channel, the hERG inhibition entry is recorded as “no significant inhibition”. Moreover, the GI50 in series [1] was in the range of 1 to 5 nM. The “Improvement of psoriasis symptoms” value in series [2] was “effectively improve psoriasis symptoms”.
On to `[2H]C([2H])([2H])NC(=O)c1nnc(NC(=O)C2CC2)cc1Nc1cccc(C(=O)Nc2cncc(C)c2)c1OC` [Example 38], for which the half-maximal inhibitory concentration (IC50) on TYK2 JH1 kinase was greater than 10000 nM; at TYK2 JH2 pseudokinase, 0.322 nM; on JAK1 JH1 kinase it was greater than 10000 nM; at JAK3 JH1 kinase, greater than 10000 nM; at JAK2 JH1 kinase, greater than 10000 nM; at JAK1 JH2 pseudokinase, 2.35 nM. Also, the hERG inhibition entry on hERG channel is reported as “no significant inhibition”. In [1], the GI50 was in the range of 1 to 5 nM. Besides, the “Improvement of psoriasis symptoms” value in series [2] is “effectively improve psoriasis symptoms”.
Consider `[2H]C([2H])([2H])NC(=O)c1cnc(NC(=O)C2CC2)cc1Nc1cccc(C(=O)Nc2ccc(C)cc2)c1OC` [Example 54], for which the IC50 at TYK2 JH1 kinase was greater than 10000 nM; on TYK2 JH2 pseudokinase, 0.302 nM; at JAK1 JH1 kinase, greater than 10000 nM; on JAK3 JH1 kinase, greater than 10000 nM; at JAK2 JH1 kinase, greater than 10000 nM; on JAK1 JH2 pseudokinase, 4.56 nM. On hERG channel, the hERG inhibition result is “no significant inhibition”. Also, the GI50 in series [1] fell in the range of 1 to 5 nM. The “Improvement of psoriasis symptoms” value in series [2] is “effectively improve psoriasis symptoms”.
Turning to `[2H]C([2H])([2H])NC(=O)c1cnc(NC(=O)C2CC2)cc1Nc1cccc(C(=O)Nc2cccc(C)c2)c1OC` [Example 55], the IC50 was greater than 10000 nM against TYK2 JH1 kinase; 0.298 nM at TYK2 JH2 pseudokinase; greater than 10000 nM at JAK1 JH1 kinase; greater than 10000 nM on JAK3 JH1 kinase; greater than 10000 nM on JAK2 JH1 kinase; 3.3 nM at JAK1 JH2 pseudokinase. At hERG channel, the hERG inhibition entry is “no significant inhibition”. The GI50 in series [1] was 1 to 5 nM. In series [2], the “Improvement of psoriasis symptoms” value is given as “effectively improve psoriasis symptoms”.
